According to patent US7705001B2, “Therapeutic substituted gamma lactams” (Allergan, Inc, priority 2008, dated 2010):

Test system: lashes and adjacent hairs of patients
Assay: Lash and hair growth observed in glaucoma patients treated in one eye
Assay type: in vivo, human
Conditions: glaucoma patient treated in only one eye
From the text: In the course of treating patients having glaucoma, treatment may only be appropriate in one eye. […] The lash appearance on the lids of the treated eyes would have appeared quite attractive if it represented a bilateral phenomenon. As a result of its asymmetric nature, the long lashes on one side could be construed as disturbing from a cosmetic standpoint. A systemic examination was preformed as a result of the asymmetric phenomenon. It soon became apparent that this altered appearance was not an isolated finding. […] Definite differences could be identified to varying degrees in the lashes and adjacent hairs of all patients who were taking the drug on a unilateral basis for longer than 6 months.
The changes in the lashes were apparent on gross inspection in several patients once attention was focused on the issue. In those with light colored hair and lashes, the differences were only seen easily with the aid of the high magnification and lighting capabilities of the slit lamp biomicroscope. In the course of glaucoma follow-up examination, attention is generally immediately focused on the eye itself. As a result of the high power magnification needed only one eye is seen at a time and the eye is seen at a high enough power that the lashes are not in focus. […]

Q: `CCNC(=O)CCC/C=C\C[C@@H]1[C@@H](/C=C/[C@@H](O)CCc2ccccc2)[C@H](O)C[C@@H]1O` [bimatoprost] was tested. Which “lash appearance in treated eye versus non-treated eye” value did it give?
A: longer, thicker, and fuller in the treated eye than in the non-treated eye
